Assay results published in patent publication US20250120971A1, “NOVEL DRUG TREATMENT OF COGNITIVE IMPAIRMENTS ASSOCIATED WITH SCHIZOPHRENIA” (FLORIDA ATLANTIC UNIVERSITY BOARD OF TRUSTEES, priority 2021, published 2025).
Entries after “also recorded” stand apart in the source; their conditions may differ.

Legend:
[1] = system: KET mouse model of psychosis or schizophrenia-like behavior; experiment: Object recognition memory task after systemic (IP) SK channel activator; type: in vivo, mouse (male C57BL/6J); settings: for discrimination ratio score, test session (Mdn): CyPPA 15.0 mg/kg IP 30 min pre-sample
Experimental: SK Drug Administration. To test the effect of the SK2 specific activator, CyPPA on long-term memory for objects, two KET groups and two SAL groups of male C57BL/6J mice were randomly assigned to receive either VEH or CyPPA (15.0 mg/kg) IP 30 min prior to the sample session of an object recognition memory task. Separate groups received CyPPA (7.5 mg/kg) IP or VEH 30 min prior to the sample session.
Arena Habituation. Mice were habituated to the arena prior to testing recognition memory. Thirty minutes prior to each arena habituation (AH) session, each mouse was restrained gently and momentarily, given a mock IP injection with a 26-gauge needle, and then placed into an empty polycarbonate cage. […] Afterwards, each mouse was returned to the polycarbonate cage and then returned to its home cage. Activity was recorded and automatically scored using Noldus Ethovision XT (version 7.0). Distance traveled was defined as the sum of recorded movement of the center point of the mouse in cm over the duration of the trial. Movement data from the AH sessions was used to match future treatment groups.
Sample Session. To examine the efficacy of activating SK channels on hippocampal long-term memory in the KET model of schizophrenia or psychosis-like cognitive deficits, an SK channel activator or vehicle (VEH, i.e., placebo) was administered to cohorts of saline (SAL) control mice or ketamine (KET)-exposed mice prior to the sample session of an object recognition task. Ten days after the final SAL or KET injection, mice received an IP injection of a SK channel activator or VEH, and then were placed individually in polycarbonate holding cages. Following a delay, the mouse was placed individually into the familiar arena for 10 min. Mice were permitted to freely explore two identical novel objects that were placed in opposite corners within the arena. […] The arena and objects were wiped down with 70% ethanol before each session to eliminate any odor cues that were present. Object exploration was defined as time (in s) that the mouse spent with its head oriented toward and within 2-3 cm of the object. The sample session ended after 10 min; at which time the mouse was returned to its home cage. Sample session behavior was video tracked via Ethovision XT and recordings were analyzed off-line to determine object exploration times for each mouse.
Test Session. Twenty-four hours following the sample session, mice were placed in a polycarbonate cage and then given a 10-min test session in the same arena as the sample session. Each mouse received a needle prick to simulate an IP injection before being placed in the polycarbonate holding cage for 30 min. For the test session, one of the previously encountered objects was replaced with a novel one (e.g., A, B, or C), as described above. To avoid place preference confounding behavioral responses, the objects were randomly replaced for the test session. The arena and objects were wiped down with 70% ethanol before each session to eliminate any odor cues that might affect behavioral responses during the test session.
Statistical Analysis. Object exploration was determined for each mouse based on the manual scoring of behavior from the recorded video files of the sample and test sessions. Scoring was done by experimenters who were blind to the treatment and group of the mice. Object memory was inferred from discrimination ratio scores, calculated for each mouse as the difference in time spent exploring the novel object minus the time spent exploring the familiar object, divided by the total time spent exploring both test objects (TNovel object−TFamiliar object/TNovel object+TFamiliar object). Discrimination ratio scores range from 1 to −1, with ratios greater than zero indicating preferential exploration of the novel object, and ratios less than zero indicating preferential exploration of the familiar object.

[2] = system: KET mouse model of psychosis; experiment: Object recognition memory task after intrahippocampal (CA1) microinfusion; type: in vivo; settings: KET mice; CyPPA 1 μg/μl bilateral intra-CA1 pre-sample; test 24 h later
[3] = system: KET mouse model of psychosis; experiment: Trace fear conditioning and tone test; type: in vivo; settings: for discrimination ratio of % freezing (trace vs CS intervals) (Mdn): CyPPA 15.0 mg/kg IP 30 min before trace fear conditioning
Experimental: Systemic Administration of the SK2 Activator. Two groups of KET mice and two groups of SAL mice were randomly assigned to receive either VEH or CyPPA (15.0 mg/kg) IP 30 min prior to a trace fear conditioning session.
Trace fear conditioning was performed using a MED Associates Near-Infrared Video Fear Conditioning System (Georgia, VT) composed of four identical rectangular conditioning chambers (30.5 cm by 24.1 cm by 21 cm) constructed of brushed aluminum side walls and clear Plexiglas front, back and top walls. Each chamber was illuminated by an overhead white house light and an infrared light. An audio speaker attached to the right-side wall of each chamber delivered the tone stimuli. The chamber floor was constructed of parallel stainless-steel rods (36 rods, 3.2 mm dia, 7.9 mm apart) designed for mice, and connected to a scrambled shock generator. Each conditioning chamber was housed inside a larger sound-attenuating cabinet with a ventilation fan in the right-side wall used to provide background noise. A near-infrared FireWire video camera, mounted on the left front door of each noise-attenuating cabinet, was used to acquire mouse behavior. Before each trial, the chamber floors were cleaned thoroughly with a 70% ethanol solution, then with 1% LiquiNox (White Plains, New York) to reduce olfactory cues.
Freezing responses were recorded and automatically scored during the conditioning session to assess the strength of fear memory. The automatic software program operationally defined freezing as the duration of time, greater than 0.6 s, during which fewer than 20 pixels of each video frame were detected to have changed. […] All final freezing responses were hand scored to ensure accuracy.
Trace Fear Conditioning Session. Mice received a systemic injection of CyPPA or VEH and then were placed individually into empty holding cages. Thirty min later, mice were placed individually into a distinct conditioning chamber with an odor cue. […] (FIG. 4A). Mice were removed from the chamber 60 s. after the presentation of the 8th US.
Trace Fear Memory Tone Test. To assess retention of trace fear memory after a 24-hour delay, mice received a mock IP injection before being placed in the polycarbonate cage. After 30 min, mice were placed into modified conditioning chambers and after a 60 s. delay, were presented with the identical tone CS as in the conditioning session. […] Mice were removed 30 s. after termination of the last CS. The context of chamber was modified before the tone test by installing an inverted V-shaped Plexiglas insert to change the geometry of the side walls and ceiling, a floor shield, 1% acetic acid, and lighting filter.
Statistical Analysis. […] To examine whether KET differentially influenced the perception of the aversive foot shock stimulus, an activity burst ratio was computed for each mouse by dividing the motion score for the first shock interval, 1 s, +1 s. post shock by the motion score for a 2-s interval from the initial 60 s. of the conditioning session (Mean shock/mean no shock). A two-factor (group, treatment) ANOVA, or one-way if not normally distributed, was conducted to analyze treatment differences in the mean activity burst.
Trace fear conditioning involves the imposition of a temporal gap between the termination of the CS and the onset of the aversive US stimulus. […] The strength and accuracy of this temporally guided fear memory can then be assessed during a test session, often presented 24 hours after trace conditioning. […]

[4] = system: rat model of repeated stress; settings: cited from earlier work

Row | Compound | discrimination ratio, test session (Mdn) ([1]; KET mice, CyPPA 7.5 mg/kg IP 30 min pre-sample, test 24 h later) | object recognition memory vs KET mice given VEH ([1]; KET mice, CyPPA 7.5 mg/kg IP pre-sample, test 24 h later) | discrimination ratio score, test session (Mdn) ([1]; KET mice, test 24 h later) | object recognition memory vs KET mice given VEH ([1]; KET mice, CyPPA 15.0 mg/kg IP pre-sample, test 24 h later) | discrimination ratio score, test session (Mdn) ([1]; SAL control mice, test 24 h later) | object memory vs SAL mice given VEH ([1]; SAL control mice, CyPPA 15.0 mg/kg IP pre-sample) | discrimination ratio score, test session (M) [2] | discrimination ratio, test session (Mdn) [2] | object recognition memory vs KET/VEH [2] | performance during the tone test (retrieval) as stated in the Conclusions ([3]; KET mice given CyPPA vs KET mice given VEH) | discrimination ratio of % freezing (trace vs CS intervals) (Mdn) ([3]; KET mice) | temporal memory / attention in trace fear conditioning vs KET mice given VEH ([3]; KET mice, CyPPA 15.0 mg/kg IP 30 min pre-conditioning) | discrimination ratio of % freezing (trace vs CS intervals) (Mdn) ([3]; SAL mice) | conditioned freezing response vs SAL mice given VEH ([3]; SAL mice, CyPPA 15.0 mg/kg IP pre-conditioning) | fear memory impairments [4]
1 | Cc1cc(NC2CCCCC2)nc(-n2nc(C)cc2C)n1 [CyPPA] | 0.079 | no rescue of KET-induced impaired object memory | 0.191 | rescued object recognition memory; also recorded: performed significantly better than VEH-treated KET mice; also recorded: significantly better object recognition memory performance | 0.381 | impaired object memory; also recorded: impaired the encoding and or consolidation of object memory | 0.354 | 0.398 | improved object recognition memory; also recorded: partial, albeit significant, rescue of object recognition memory | performed equivalently to KET mice given VEH | 0.21 | rescue of the attention or learning deficit; also recorded: significantly better than that of VEH-treated KET mice; also recorded: rescued temporal memory and attention | 0.13 | impaired acquisition of the conditioned freezing response; also recorded: exhibited impaired freezing compared to SAL mice given VEH | alleviated fear memory impairments
2 | CCn1c(=O)[nH]c2ccccc21 [1-EBIO] |  |  |  |  |  |  |  |  |  |  |  |  |  |  | alleviated fear memory impairments
